Experiment [1] concerns panel of human tumor lines (drug-susceptible cell lines). Put plainly: Antiproliferative assay, methylene blue staining. Particulars: 120 h, 5 days incubation. Type of experiment: cell-based. From the text: (§1) The following cell lines are obtained from the American Type Culture Collection (ATCC, Rockville, Md., USA): human colon carcinomas HCT-15 (CCL 225) and HCT-116 (CCL 247), human lung adenocarcinoma A549 (CCL 185), human large cell carcinoma NCI-H460 (HTB 177), estrogen-independent breast carcinoma MDA-MB-231 ([…]), prostate cancer cell line Du 145 (HTB 81). The human KB-31 (drug-sensitive) and KB-8511 (multidrug-resistant, Pgp170 overexpressing) epidermoid carcinoma cells are obtained from Dr. R. M. Baker, Roswell Park Memorial Institute (Buffalo, N.Y., USA) and have been previously described (Akiyam S, et al. Somatic Cell Molec Genetics 1985;11:117-126 and Fojo A, et al., Cancer Res. […];45:3002-3007). The human metastatic prostate carcinoma PC-3M is obtained from Dr. I. J. Fidler (MD Anderson Cancer Center, Houston, Tex., USA). The estrogen-dependent human breast carcinoma cell line MCF-7/ADR (multidrug resistant) is a subline of the MCF-7 cell line (ATCC HTB 22) and is obtained from Dr. D. Fabbro (Novartis Pharma AG, Basel, Switzerland) and has been previously described (Blobe G C, et al. J. Biol. Chem. 1993; 268:658-664).
For the antiproliferative assays, cells are seeded at 1.5×10^3/well into 96-well microtiter plates and incubated overnight. Compounds are added in serial dilutions on day 1. The plates are than incubated for additional 5 days. This allowed the control cultures to undergo at least 3 cell divisions. After incubation the cells are fixed with 3.3% v/v glutaraldehyde, washed with water and stained with 0.05% w/v methylene blue. After washing, the dye is eluted with 3% v/v HCl and the optical density measured at 665 nm with a SpectraMax 340 (Bucherer, Basel, Switzerland). IC50 values are determined by a computerized system (SoftPro, Bucherer, Basel, Switzerland) using the formula (OD test—OD start)/(OD control—OD start)×100. IC50 is defined as the drug concentration which leads to 50% of cells per well compared to control cultures (100%) at the end of the incubation period.

For experiment [2], the system named is MCF-7/ADR cells (multidrug resistant). The experiment in a line: Antiproliferative assay, methylene blue staining. Type of experiment: cell-based, human.
From the text: as §1, with “The estrogen-dependent human breast carcinoma cell line MCF-7/ADR (multidrug resistant) is a subline of the MCF-7 cell line (ATCC HTB 22) and is obtained from Dr. D. Fabbro (Novartis Pharma AG, Basel, Switzerland) and has been previously described (Blobe G C, et al. J. Biol. Chem. 1993; 268:658-664).” left out
For the antiproliferative assays, cells are seeded at 1.5×10^3/well into 96-well microtiter plates and incubated overnight. […] After washing, the dye is eluted with 3% v/v HCl and the optical density measured at 665 nm with a SpectraMax 340 (Bucherer, Basel, Switzerland). IC50 values are determined by a computerized system (SoftPro, Bucherer, Basel, Switzerland) using the formula (OD test—OD start)/(OD control—OD start)×100. […]

The subject of another experiment is A549 cells. The experiment in a line: Antiproliferative assay (MTS). Particulars: 72 h exposure, two independent experiments, read-out: IC50 cell proliferation. Type of experiment: cell-based, human. On the procedure:
A549, a human non-small cell lung carcinoma and MDA-MB-435, a human breast carcinoma, used in this study are obtained from the American Type Culture Collection (ATCC, Rockville, Md., USA). MDA-MB-435 cells are maintained in MEM containing 10% FBS, 1% sodium pyruvate, 1% MEM non-essential amino acids, and 15 mM HEPES (pH=7.4). A549 cells are maintained in RPMI 1640 containing 10% FBS. 1A9, a single-cell clone of the human ovarian carcinoma cell line A2780 and PTX22, the paclitaxel-resistant subline, used in this stdy are obtained from M. Wartman (Novartis Pharmauticals). 1A9 cells and PTX22 cells are maintained in RPMI 1640 supplemented with 10% FBS. PTX22 maintenance media also contained 15 ng/mL paclitaxel and 5 μg/mL verapamil. Drug is removed from the media for 5-7 days before use in an experiment. All maintenance media contained 100 units/mL penicillin and 100 μg/mL streptomycin.
Cell lines are trypsinized and counted using a Coulter counter. Cells were plated in 96 well plates (190 μL/well) at the following densities: 1,000 cells/well for A549 and 3,000 cells/well for MDA-MB-435. The number of cells plated results in cell densities of 75-90% confluence by the time of harvest. Plates are seeded on day 0. On day 1 test compounds are added to triplicate wells in a final volume of 10 μL media. Initial cell density for each cell line is measured on day 1 by adding 10 μL MTS mixture (see below), incubating for 4 h and recording absorbance at 490 nm (A490). Two or three days after test compound addition, 10 μL/well of MTS mixture is added to the test plates and A490 was read 4 h later. A490 values for wells containing cells are corrected for media absorbance, then normalized to initial density readings to determine percent net growth. Percent net growth is calculated as (A490+drug−A490 initial)/(A490—drug—A490 initial). Graphs of percent net growth as a function of compound concentration are used to calculate concentrations resulting in 50% growth inhibition (IC50). MTS mixture is prepared fresh on day of addition to cell plates at a ratio of 10 μL of a 0.92 mg/mL solution of phenazine methosulfate (PMS) to 190 μL of a 2 mg/mL solution of MTS (3-(4,5-dimethylthiazol-2-yl)-5-(3-carboxymethoxyphenyl)-2-(4-sulfophenyl)-2H-tetrazolium, inner salt). PMS and MTS solutions are prepared in buffered saline containing 0.2 g/L KCl, 8.0 g/L NaCl, 0.2 g/L KH2PO4, 1.15 g/L Na2HPO4, 133 mg/L CaCl2.2H2O, 100 mg/L MgCl2.6H2O, (pH=7.35) and stored as foil-wrapped aliquots at −20° C. Test compounds are prepared as stock solutions in DMSO. Test compound dilutions are made in 2% DMSO/cell maintenance media and diluted into assay plates to give 0.1% DMSO final in all wells.

Like-named read-outs stand apart in the source and are kept apart here.

Turning to `C=C/C=C\[C@H](C)[C@H](OC(N)=O)[C@@H](C)[C@H](O)[C@@H](C)C/C(C)=C\[C@H](C)[C@@H](O)[C@@H](C)/C=C\[C@@H](O)C[C@@H]1OC(=O)[C@H](C)[C@@H](O)[C@H]1C` [discodermolide, (+)-Discodermolide], the IC50 is 2 to 24 nM in experiment [1]; 60 nM in the experiment on A549 cells; 45 nM with A549 cells (Homo sapiens, A549, 72 h). The “potency compared with paclitaxel” value in experiment [2] is reported as “more potent than paclitaxel”.

These data come from patent publication US6774143B1, “Method for treating cells resistant to antineoplastic agents” (Novartis AG, priority 2003, dated 2004).
